What was measured:
[1] = target: T1, CYP1A2 (Homo sapiens, UniProt P05177); assay: Time-dependent CYP inhibition in HLM, CYP1A2; format: in vitro ADME; conditions: 10 μM, 30 min pre-incubation with NADPH
T1 construct: tissue Life Technologies (Durham, NC, USA); host or cells: human liver microsomes
T1 sequence (P05177 1-516): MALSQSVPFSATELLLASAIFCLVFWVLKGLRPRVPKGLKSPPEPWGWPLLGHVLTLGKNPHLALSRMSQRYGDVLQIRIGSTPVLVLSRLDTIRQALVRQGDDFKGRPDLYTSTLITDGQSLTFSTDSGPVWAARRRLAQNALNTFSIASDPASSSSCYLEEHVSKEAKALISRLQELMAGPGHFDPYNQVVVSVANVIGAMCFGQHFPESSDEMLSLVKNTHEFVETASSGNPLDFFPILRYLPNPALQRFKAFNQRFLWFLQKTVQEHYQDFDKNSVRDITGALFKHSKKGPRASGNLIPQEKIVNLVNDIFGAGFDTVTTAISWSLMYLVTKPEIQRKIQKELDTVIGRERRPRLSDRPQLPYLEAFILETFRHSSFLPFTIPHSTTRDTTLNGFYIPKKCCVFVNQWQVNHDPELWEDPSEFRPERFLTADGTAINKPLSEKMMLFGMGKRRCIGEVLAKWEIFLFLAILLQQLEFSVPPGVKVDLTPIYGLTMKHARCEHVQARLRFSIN
Protocol: (§1) The procedure of time-dependent CYP inhibition was similar to that used for CYP reversible inhibition, as mentioned above, except that a pre-incubation step was added. […] Another appropriate volume of the NADPH-regenerating system and probe substrate were added to initiate the CYP isoform enzyme activity test step. For this step, the incubation period was 10 min, except for CYP2B6, CYP2C8, and CYP3A4/5 (probe substrate: midazolam), which was 3 min to make sure the reaction was under initial linear rates. After incubation for the designated time periods at 37°C, the ice-cold acetonitrile containing IS was added to quench the reaction. […] (Ainactivator/[…] represents the enzyme activity remaining due to the inhibition by the diluted inactivator in the enzyme activity test step, and (Ainactivator/[…] represents the remaining enzyme activity due to pre-incubation loss plus inhibition by the diluted inactivator in the enzyme activity test step.

[2] = target: T2, CYP2C9 (Homo sapiens, UniProt P11712); assay: Time-dependent CYP inhibition in HLM, CYP2C9; format: in vitro ADME; conditions: 10 μM, 30 min pre-incubation with NADPH
T2 construct: tissue Life Technologies (Durham, NC, USA); host or cells: human liver microsomes
T2 sequence (P11712 whole entry): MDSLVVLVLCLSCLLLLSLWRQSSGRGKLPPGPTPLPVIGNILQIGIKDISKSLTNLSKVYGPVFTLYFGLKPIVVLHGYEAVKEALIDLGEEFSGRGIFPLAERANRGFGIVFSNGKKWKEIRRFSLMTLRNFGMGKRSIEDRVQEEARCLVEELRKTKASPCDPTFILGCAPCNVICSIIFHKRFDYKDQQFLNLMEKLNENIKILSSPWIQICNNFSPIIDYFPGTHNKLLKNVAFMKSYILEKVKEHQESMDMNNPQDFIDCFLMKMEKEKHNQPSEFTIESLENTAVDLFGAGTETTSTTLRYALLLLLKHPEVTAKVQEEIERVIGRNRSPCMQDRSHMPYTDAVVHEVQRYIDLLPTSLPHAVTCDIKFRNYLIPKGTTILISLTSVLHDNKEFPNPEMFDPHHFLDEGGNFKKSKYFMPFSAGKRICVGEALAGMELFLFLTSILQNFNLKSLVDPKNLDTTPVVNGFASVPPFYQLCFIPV
Protocol: as §1

[3] = test system: CYP2C8; assay: CYP induction in human hepatocytes, CYP2C8 enzyme activity
Protocol: (§2) […] […] […] Enzyme activity for each CYP isoform was reported as a fold change over vehicle control and the percent of positive control (detailed calculation in Supplementary 1.1). Hepatocytes were harvested with a lysis buffer from RNeasy 96 Kit (Qiagen Inc., Germantown, MD, USA) to isolate RNA, which was analyzed by real-time quantitative polymerase chain reaction (RT-PCR). […] Emax (the maximal observed induction) and EC50 (the concentration that supports half-maximal induction) were estimated by non-linear regression of fold increase in CYP mRNA expression versus concentration plots.
(§3) The fold of vehicle control and the percent of positive control were calculated with the formulas below:
(§4) Fold of vehicle control = CYPs activity of test compound (or positive control) treated sample / CYPs activity of vehicle control treated sample
(§5) % of positive control = [(fold change in treated sample)-1] / [(fold change in positive control)-1] × 100
(§6) Based on the enzyme activity, a minimum of 2-fold increase compared to vehicle control for the positive control and ≥40% of the positive control for the test article was considered as the cutoff for a positive signal in in vitro induction assay.

[4] = test system: CYP2C9; assay: CYP induction in human hepatocytes, CYP2C9 enzyme activity
Protocol: as §2, §3, §4, §5, §6

[5] = Single-dose PK in ICR mice (IV/PO)
[6] = test system: CYP1A2 mRNA; assay: in vitro; conditions: human; for EC50 at 48 h: EC50, CYP1A2 expression
Protocol: as §2, §5
(§7) Based on the gene expression, a minimum of 4-fold increase of positive control compared to vehicle control, a minimum of 2-fold increase of the test article compared vehicle control and increased in a concentration-dependent manner was considered as the cutoff for a positive signal in in vitro induction assay.

[7] = test system: CYP2C8 mRNA; assay: CYP induction in human hepatocytes, CYP2C8 mRNA (RT-PCR)
Protocol: as §2, §5, §7

[8] = Whole blood-to-plasma partition, rat blood; format: in vitro ADME
Protocol: The whole blood and plasma samples were incubated at 37°C for up to 1 h. Serial samples (150 µL) were collected at different time points (0, 10, and 60 min) and transferred into new tubes. The whole blood samples were then centrifuged at 1700 g for 15 min to harvest plasma.

[9] = male, ICR, mouse, in vivo, iv, 2.5 mg/kg
[10] = male, ICR, mouse, in vivo, po, 10 mg/kg

In the case of `C[C@H](Nc1ncnc(N)c1C#N)c1cc2ncc(Cl)n2nc1-c1ccccc1` [Amdizalisib], the “activity loss of CYP1A2” value [1] is reported as “less than 10%”, the “activity loss of CYP2C9” value [2] is reported as 14.6% and the “Enzyme activity Percent of PC (%)” value ([3]; CYP 2C8, donor one, 3 µM) is reported as 10.8%. The “Enzyme activity Percent of PC (%)” value ([3]; female, human, 48 h, 0.3 µM) was 5.21%, the “Enzyme activity Percent of PC (%)” value ([3]; female, human, 48 h, 20 µM) was -19.4% and the “Enzyme activity Percent of PC (%)” value ([4]; CYP2C9, donor eight, 20 µM) was 14.5%. For the same compound, the “Enzyme activity Percent of PC (%)” value ([4]; female, human, 48 h, 0.3 µM) was 5.63%, the “Enzyme activity Percent of PC (%)” value ([4]; female, human, 48 h, 3 µM) was 30.0% and the “Enzyme activity Percent of PC (%)” value ([4]; female, human, 48 h, 20 µM) was 38.1%. For the same compound, the “Enzyme activity Percent of PC (%)” value ([4]; male, human, 48 h, 20 µM) was 36.5%, the FPO ([5]; ICR mouse, fasted, PO 10 mg/kg) was 101% and the AUC(0-inf) [5, 9] was 2830 ng·h/mL. The AUC(0-t) [5, 9] was 2700 ng·h/mL, the MRT [5, 9] was 2.12 h and the Vd [5, 9] was 1.87 L/kg. The clearance [5, 9] was 14.7 mL/min/kg, the half-life [5, 9] was 124 min and the AUC(0-inf) [5, 10] was 13700 ng·h/mL. The AUC(0-t) [5, 10] was 10900 ng·h/mL, the Cmax [5, 10] was 3080 ng/mL and the MRT [5, 10] was 4.91 h. The half-life [5, 10] was 250 min, the “induction on CYP1A2 mRNA expression” value ([6]; both, hepatocytes, 48 h, 20 µM) was >2-fold induction on CYP1A2, 2B6, 3A4, 2C9 mRNA expression at 20 uM and the EC50 at 48 h ([6]; female) was 9.57 µM. For the same compound, the “Gene expression Percent of PC (%)” value ([6]; male, 48 h, 1 µM) was 3.60%, the “Gene expression Percent of PC (%)” value ([6]; male, 48 h, 3 µM) was 0.30% and the “Gene expression Percent of PC (%)” value ([6]; male, 48 h, 10 µM) was 10.7%. For the same compound, the “Gene expression Percent of PC (%)” value ([6]; male, 48 h, 20 µM) was 8.20%, the “Gene expression Percent of PC (%)” value ([6]; male, 48 h, 30 µM) was 14.2% and the EC50 at 48 h ([6]; male) was 7.73 µM. The “Gene expression Percent of PC (%)” value ([7]; CYP 2C8, donor four, 3 µM) was 14.5%, the “Gene expression Percent of PC (%)” value ([7]; female, human, 48 h, 0.3 µM) was 7.24% and the “Gene expression Percent of PC (%)” value ([7]; female, human, 48 h, 3 µM) was 13.5%. For the same compound, the “Gene expression Percent of PC (%)” value ([7]; female, human, 48 h, 20 µM) was 3.97%, the “Gene expression Percent of PC (%)” value ([7]; male, human, 48 h, 3 µM) was 9.01% and the RB ([8]; rat blood, 1 μM, 0 min) was 1.08. For the same compound, the RB ([8]; rat blood, 1 μM, 60 min) was 1.03, the fuB ([8]; rat blood, 10 min) was 8.41% and the fuB ([8]; rat, 0 min, 1 µM) was 9.11%. For the same compound, the fup ([8]; rat, 1 µM) was 0.0980, the RB ([8]; rat, 10 min, 1 µM) was 1.16 and the fuB ([8]; rat, 60 min, 1 µM) was 9.49%.
